According to US20250303062A1, “Methods for controlling drug administration” (NUTROMICS […] LTD, priority 2022, published 2025):

Assays:
[1] = target: DNA-aptamer for vancomycin; assay: Titration curve of vancomycin EAB sensor by square-wave voltammetry, dissociation constant of the aptamer; assay type: binding
Protocol: Each combination of electrode/matrix was electrochemically interrogated via square-wave voltammetry to obtain two set of data: • A frequency map, where the signal-on and signal-off frequencies were determined for a particular amplitude. • A titration curve, where the sensor is interrogated at several concentrations of vancomycin by using the optimal signal-on frequency (responsible for the sensing event).
The titration curve also allowed determination of the dissociation constant of the aptamer in the employed matrix.
• Estart=between −0.5 and −0.4 V • Efinal=between −0.2 and −0.1 V • Eref=Ag|AgCl
• fix A=optimal amplitude (25 mV for vancomycin-in-vitro) • scan f=optimal signal-on value (between 80 and 100 Hz) and signal-off value (lower than 15 Hz)
Reference is made to FIG. 13 showing response of a vancomycin sensitive microelectrode (d=340 μm) in (i) human serum and (artificial ISF including BSA, and globulin as described above). The following equation describes an isotherm that represents the response of the sensing layer to the presence of different concentrations of vancomycin.
Reference is made to FIG. 17, showing data comparing the use of two different mathematical approaches for obtaining KD, which generated consisting fitting.

[2] = Human study: vancomycin in ISF by wearable EAB sensor vs serum; assay type: in vivo; settings: healthy participants, single intravenous infusion 1 gram over 1 hour 40 minutes, ISF measured every 5 minutes
Protocol: These human studies followed vancomycin levels using an EAB sensor (which may also be referred to as the “device”). The device was a self-contained wearable EAB sensor, constructed, having an on-board power supply, electrodes, and electronics, including a microprocessor and BlueTooth™ communications module.
A vancomycin-sensitive EAB sensor was placed onto the participant's upper arm (see FIG. 20), opposite the arm where vancomycin was being infused. The time of device application was recorded. The device was applied 30 minutes (+15 minutes) prior to administering the vancomycin infusion and the device was removed up to 10 hours post-cessation of the infusion.
30 minutes (+15 minutes) post-application of the device, the participant received a single dose of vancomycin as an intravenous infusion (1 gram over 1 hour 40 minutes). The time of administration and completion of infusion was recorded. […]
Square Wave Voltammetry (SWV) was used to interrogate the DNA-based sensor electrodes. […] Use the determined peak currents magnitudes obtained at two different SWV interrogation frequencies (in this case 50 Hz and 300 Hz), when no vancomycin is present and when it is present to calculate an analyte concentration responsive signal(S). • 4. […]

CN[C@H](CC(C)C)C(=O)N[C@H]1C(=O)N[C@@H](CC(N)=O)C(=O)N[C@H]2C(=O)N[C@H]3C(=O)N[C@H](C(=O)N[C@H](C(=O)O)c4cc(O)cc(O)c4-c4cc3ccc4O)[C@H](O)c3ccc(c(Cl)c3)Oc3cc2cc(c3O[C@@H]2O[C@H](CO)[C@@H](O)[C@H](O)[C@H]2O[C@H]2C[C@](C)(N)[C@H](O)[C@H](C)O2)Oc2ccc(cc2Cl)[C@H]1O [vancomycin]
KD ([1]; human serum, smaller sensing area (microelectrode d=170 μm), two mathematical approaches): preserved | KD (the dissociation constant of the DNA aptamer) ([1]; microelectrode d=340 μm, synthetic interstitial fluid containing proteins compared with human serum): similar | vancomycin in the ISF compartment (ISF vs blood) [2]: high variation
